Experimental data as given in the supplement of paper PMC10307832.

Columns and labels:
Experiment in all cases: relative viability (nuclei count vs DMSO), 5 days (fraction); higher = more cells survive
Carfilzomib + Alpelisib = compound: CC(C)C[C@H](NC(=O)[C@H](CCc1ccccc1)NC(=O)CN1CCOCC1)C(=O)N[C@@H](Cc1ccccc1)C(=O)N[C@@H](CC(C)C)C(=O)[C@@]1(C)CO1 [Carfilzomib] + Cc1nc(NC(=O)N2CCC[C@H]2C(N)=O)sc1-c1ccnc(C(C)(C)C(F)(F)F)c1 [Alpelisib] (partner 2 µM)
Procedure, shortened: (§1)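 Lung cancer cell lines, seeded in 1536-well plates, were treated the following day by pin tool with a single drug or with five library-drug doses (not always all listed) in √10 steps on top of a fixed anchor-drug dose. Cells were fixed and nuclei stained in one step after 5 days, and nuclei were counted. Relative viability is the nuclei count for treated wells divided by that for vehicle wells, reported as medians of duplicate plates.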

Olaparib + Pemetrexed = compound: O=C(c1cc(Cc2n[nH]c(=O)c3ccccc23)ccc1F)N1CCN(C(=O)C2CC2)CC1 [Olaparib] + Nc1nc2[nH]cc(CCc3ccc(C(=O)N[C@@H](CCC(=O)O)C(=O)O)cc3)c2c(=O)[nH]1 [Pemetrexed] (partner 0.2 µM)
Procedure, shortened: as §1

Carfilzomib + Pemetrexed = compound: CC(C)C[C@H](NC(=O)[C@H](CCc1ccccc1)NC(=O)CN1CCOCC1)C(=O)N[C@@H](Cc1ccccc1)C(=O)N[C@@H](CC(C)C)C(=O)[C@@]1(C)CO1 [Carfilzomib] + Nc1nc2[nH]cc(CCc3ccc(C(=O)N[C@@H](CCC(=O)O)C(=O)O)cc3)c2c(=O)[nH]1 [Pemetrexed] (partner 0.2 µM)
Procedure, shortened: as §1

Carfilzomib + Luminespib = compound: CC(C)C[C@H](NC(=O)[C@H](CCc1ccccc1)NC(=O)CN1CCOCC1)C(=O)N[C@@H](Cc1ccccc1)C(=O)N[C@@H](CC(C)C)C(=O)[C@@]1(C)CO1 [Carfilzomib] + CCNC(=O)c1noc(-c2cc(C(C)C)c(O)cc2O)c1-c1ccc(CN2CCOCC2)cc1 [Luminespib] (partner 0.01 µM)
Procedure, shortened: as §1

| Cell Line | relative viability (Carfilzomib + Alpelisib; first compound 0.001 µM) | relative viability (Carfilzomib + Alpelisib; first compound 0.003162 µM) | relative viability (Carfilzomib + Alpelisib; first compound 0.01 µM) | relative viability (Carfilzomib + Alpelisib; first compound 0.03162 µM) | relative viability (Carfilzomib + Alpelisib; first compound 0.1 µM) | relative viability (Olaparib + Pemetrexed; first compound 0.08 µM) | relative viability (Olaparib + Pemetrexed; first compound 0.253 µM) | relative viability (Olaparib + Pemetrexed; first compound 2.53 µM) | relative viability (Olaparib + Pemetrexed; first compound 8 µM) | relative viability (Carfilzomib + Pemetrexed; first compound 0.001 µM) | relative viability (Carfilzomib + Pemetrexed; first compound 0.003162 µM) | relative viability (Carfilzomib + Pemetrexed; first compound 0.01 µM) | relative viability (Carfilzomib + Pemetrexed; first compound 0.03162 µM) | relative viability (Carfilzomib + Pemetrexed; first compound 0.1 µM) | relative viability (Carfilzomib + Luminespib; first compound 0.001 µM) | relative viability (Carfilzomib + Luminespib; first compound 0.003162 µM) | relative viability (Carfilzomib + Luminespib; first compound 0.01 µM) | relative viability (Carfilzomib + Luminespib; first compound 0.03162 µM) | relative viability (Carfilzomib + Luminespib; first compound 0.1 µM) |
| --- | --- | --- | --- | --- | --- | --- | --- | --- | --- | --- | --- | --- | --- | --- | --- | --- | --- | --- | --- |
| 201T | 0.986 | 1.05 | 0.983 | 1.07 | 0.893 | 0.309 | 0.346 | 0.298 | 0.323 | 0.33 | 0.33 | 0.337 | 0.351 | 0.312 | 0.999 | 1.15 | 1.07 | 1.02 | 0.915 |
| A549 | 0.652 | 0.754 | 0.755 | 0.0509 | 0.04 | – | – | – | – | – | – | – | – | – | – | – | – | – | – |
| A-427 | 1.07 | 1.07 | 1.06 | 0.699 | 0.1 | 0.922 | 0.947 | 0.87 | 0.73 | 0.951 | 1.02 | 0.983 | 0.842 | 0.183 | 0.837 | 1.18 | 1.05 | 0.141 | 0.112 |
| ABC-1 | 1.16 | 1.09 | 0.636 | 0.246 | 0.267 | – | – | – | – | – | – | – | – | – | 0.581 | 1.35 | 0.246 | 0.193 | 0.141 |
| BEN | 1.04 | 1.22 | 1.12 | 0.83 | 0.499 | 0.725 | 0.672 | 0.828 | 0.895 | 0.743 | 0.778 | 0.787 | 0.599 | 0.352 | 0.287 | 0.528 | 0.258 | 0.248 | 0.175 |
| CAL-12T | – | 1.38 | 1.3 | 0.619 | 0.105 | 1.48 | 1.04 | 1.16 | 0.963 | 1.19 | 1.37 | 1.15 | 0.832 | 0.168 | 0.486 | 0.29 | 0.478 | 0.16 | 0.141 |
| COR-L23 | 0.735 | 0.879 | 0.709 | 0.0481 | 0.052 | 0.221 | 0.195 | 0.177 | 0.21 | 0.2 | 0.187 | 0.185 | 0.123 | 0.0834 | 0.665 | 0.681 | 0.557 | 0.0931 | 0.0743 |
| COR-L 105 | 1.04 | 1.16 | 0.85 | 0.566 | 0.246 | 1.31 | 1 | 0.838 | 0.914 | 1.24 | 1.09 | 1.19 | 0.469 | 0.317 | 0.721 | 0.737 | 0.788 | 0.503 | 0.236 |
| Calu-6 | 0.93 | 1.02 | 0.838 | 0.174 | 0.102 | – | – | – | – | – | – | – | – | – | – | – | – | – | – |
| ChaGo-K-1 | – | – | – | – | – | 0.266 | 0.258 | 0.261 | 0.256 | 0.27 | 0.258 | 0.258 | 0.262 | 0.179 | 0.581 | 0.747 | 0.587 | 0.523 | 0.171 |
| EBC-1 | 0.7 | 0.792 | 0.259 | 0.112 | 0.13 | – | – | – | – | – | – | – | – | – | – | – | – | – | – |
| EKVX | 0.845 | 1.06 | 0.953 | 0.837 | 0.363 | 0.425 | 0.401 | 0.418 | 0.365 | 0.393 | 0.447 | 0.489 | – | 0.371 | 0.887 | 0.907 | 0.886 | 0.788 | 0.39 |
| EMC-BAC-2 | 0.699 | 0.733 | 0.757 | 0.758 | 0.326 | 0.473 | 0.478 | 0.472 | 0.491 | 0.496 | 0.492 | 0.46 | 0.434 | 0.432 | 1.13 | 1.24 | 1.26 | 1.16 | 0.225 |
| EPLC-272H | 0.884 | 1.03 | 0.83 | 0.141 | 0.106 | 0.316 | 0.312 | 0.345 | 0.357 | 0.367 | 0.263 | 0.46 | 0.114 | 0.0633 | 0.266 | 0.694 | 0.269 | 0.151 | 0.101 |
| H3255 | 0.749 | 0.886 | 0.723 | 0.494 | 0.154 | 0.598 | 0.58 | 0.577 | 0.597 | 0.544 | 0.601 | 0.578 | 0.423 | 0.249 | 0.847 | 0.904 | 0.797 | 0.656 | 0.143 |
| HARA | 0.79 | 0.857 | 1.07 | 0.0576 | 0.0587 | 0.274 | 0.251 | 0.272 | 0.232 | 0.241 | 0.23 | 0.252 | 0.0877 | 0.155 | 0.871 | 0.576 | 0.615 | 0.051 | 0.0562 |
| HCC-15 | 0.855 | 0.914 | 0.86 | 0.506 | 0.0942 | 0.215 | 0.224 | 0.209 | 0.221 | 0.242 | 0.218 | 0.238 | 0.224 | 0.13 | 0.306 | 0.344 | 0.299 | 0.268 | 0.0676 |
| HCC-44 | 0.786 | 0.785 | 0.861 | 0.705 | 0.134 | 0.658 | 0.619 | 0.716 | 0.748 | 0.665 | 0.605 | 0.658 | 0.705 | 0.685 | 1.01 | 1.15 | 0.955 | 0.471 | 0.212 |
| HCC-78 | 0.327 | 0.45 | 0.362 | 0.287 | 0.157 | 0.885 | 0.886 | 0.906 | 0.908 | 0.876 | 0.868 | 0.904 | 0.967 | 0.9 | – | – | – | – | – |
| HCC-366 | 0.402 | 0.518 | 0.413 | 0.285 | 0.0174 | 0.165 | 0.195 | 0.206 | 0.271 | 0.158 | 0.149 | 0.2 | 0.17 | 0.039 | – | – | – | – | – |
